Target: T1, Tyrosine-protein phosphatase non-receptor type 1 (Homo sapiens, UniProt P18031)
T1 sequence (P18031 whole entry): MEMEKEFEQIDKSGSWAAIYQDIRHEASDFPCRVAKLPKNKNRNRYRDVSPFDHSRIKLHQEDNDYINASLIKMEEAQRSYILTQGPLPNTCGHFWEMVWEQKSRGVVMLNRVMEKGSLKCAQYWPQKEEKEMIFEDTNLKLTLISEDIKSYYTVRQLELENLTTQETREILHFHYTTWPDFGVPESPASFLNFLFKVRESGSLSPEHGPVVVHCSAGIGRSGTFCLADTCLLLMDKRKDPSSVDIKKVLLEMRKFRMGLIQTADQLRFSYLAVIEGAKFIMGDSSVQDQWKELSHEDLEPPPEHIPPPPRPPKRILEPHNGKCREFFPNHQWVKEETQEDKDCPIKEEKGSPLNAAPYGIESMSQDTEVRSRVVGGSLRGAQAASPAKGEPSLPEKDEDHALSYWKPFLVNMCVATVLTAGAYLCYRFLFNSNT
Assay: Inhibition of human PTP1B

IC50: 3.77 µM
Compound: COC(=O)/C1=C/c2c([nH]c3ccccc23)/C(C(=O)OC)=C\c2c1[nH]c1ccccc21 [CAULERPIN]
